Laboratory results: publication PMC5030486, “Neprilysin is a Mediator of Alternative Renin-Angiotensin-System Activation in the Murine and Human Kidney” (Scientific Reports, 2016)
Ends that are not written are not given here. Peptide text beside a SMILES is read from it. * marks the point of attachment. Cbz = O=C(OCc1ccccc1)*

Columns and labels:
[1] = tested on: Ang-(1-7) and Ang II formation from Ang I (NEP, PEP, ACE, chymase) in human kidney homogenates
Procedure: (§1) This study was approved by the Ethics Committee of the Medical University of Vienna (EK #1496/2014) and was performed in accordance to the good clinical practice guidelines. Written informed consent was obtained before biopsies were taken perioperative from 5 kidney donors in 2014. Renal biopsies were either snap frozen in liquid nitrogen for angiotensin metabolism analysis or fixed in formalin for histological examination.
Metabolic RAS analysis was performed by Attoquant Diagnostics GmbH, Vienna, Austria. Renal biopsies of mice and humans were extracted and homogenized in phosphate-buffered saline (PBS) using low-energy sonication. The metabolism of spiked Ang I, Ang II (Fisher Scientific) or recombinant murine AGT (Sino Biological Inc.) for the renin activity assay, respectively, was assayed in homogenates after ex vivo incubation at 37 °C in presence or absence of specific enzyme inhibitors. […] Aminopeptidase Inhibitor (10 μM, Sigma-Aldrich) was added to all samples.
The enzyme activity was calculated by determining the inhibitor sensitive part of product formation in incubated samples and is presented as a product formation in ng of the corresponding angiotensin product per μg protein per hour. In order to proof linearity of the assay in dependence of enzyme abundance, Ang I and Ang II metabolism were assayed in serial diluted kidney homogenates (Supplementary Fig. 6). All experiments were performed in the linear range of the assay.
(§2) Angiotensin peptide quantification by liquid chromatography tandem-mass spectrometry analysis (LC-MS/MS) was performed by Attoquant Diagnostics GmbH (Vienna, Austria) as previously described.

[2] = molecular target: T1, NEP (Mus musculus, UniProt Q61391); assay: MALDI-Imaging of Ang I to Ang-(1-7) turnover in murine kidney cryo-sections; type: biochemical
T1 construct: Consecutive tissue sections were prepared from fresh frozen kidneys (n = 4); from tissue; host or cells: murine kidney cryo-sections (fresh frozen)
T1 sequence (Q61391 1-750): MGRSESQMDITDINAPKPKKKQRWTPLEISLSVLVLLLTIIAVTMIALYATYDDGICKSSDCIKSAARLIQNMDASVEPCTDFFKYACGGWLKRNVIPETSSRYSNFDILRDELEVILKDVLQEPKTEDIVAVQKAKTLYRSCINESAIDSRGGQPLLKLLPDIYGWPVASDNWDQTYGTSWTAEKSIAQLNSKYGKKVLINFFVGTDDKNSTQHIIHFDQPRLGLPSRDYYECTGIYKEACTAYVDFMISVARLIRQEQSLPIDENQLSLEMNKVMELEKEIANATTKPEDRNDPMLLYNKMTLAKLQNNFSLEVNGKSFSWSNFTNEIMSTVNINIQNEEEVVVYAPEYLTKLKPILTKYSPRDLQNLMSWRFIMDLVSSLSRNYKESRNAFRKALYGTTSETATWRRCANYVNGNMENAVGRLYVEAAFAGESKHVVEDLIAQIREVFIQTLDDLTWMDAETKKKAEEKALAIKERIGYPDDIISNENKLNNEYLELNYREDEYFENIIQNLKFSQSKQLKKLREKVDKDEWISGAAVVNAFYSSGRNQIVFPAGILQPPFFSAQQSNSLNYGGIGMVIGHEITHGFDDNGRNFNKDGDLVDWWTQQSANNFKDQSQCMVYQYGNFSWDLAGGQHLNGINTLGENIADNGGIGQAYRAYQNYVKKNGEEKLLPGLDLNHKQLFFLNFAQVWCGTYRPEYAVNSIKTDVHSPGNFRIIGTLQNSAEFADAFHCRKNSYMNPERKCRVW
Procedure: Consecutive tissue sections were prepared from fresh frozen kidneys (n = 4) as previously described[37] and incubated with 772 μM Ang I at 37 °C for 5 min. […] The imaging technique is described in detail elsewhere.

[3] = tested on: Ang-(1-7) and Ang II formation from Ang I (NEP, PEP, ACE) in murine kidney homogenates; type: biochemical, mouse
Procedure: as §2

[4] = tested on: ACE; details: cited from earlier work
[5] = tested on: CES1; details: liver; cited from earlier work
[6] = tested on: Ang-(1-7) formation from Ang II (ACE2, PCP) in human kidney homogenates; assay: Ang II turnover to Ang-(1-7) in human kidney biopsy homogenates; type: biochemical; details: human kidney biopsy homogenate, inhibitor sensitive formation rate of Fig. 2d, mean ± s.d., n = 5
Procedure: as §1
Metabolic RAS analysis was performed by Attoquant Diagnostics GmbH, Vienna, Austria. Renal biopsies of mice and humans were extracted and homogenized in phosphate-buffered saline (PBS) using low-energy sonication. The metabolism of spiked Ang I, Ang II (Fisher Scientific) or recombinant murine AGT (Sino Biological Inc.) for the renin activity assay, respectively, was assayed in homogenates after ex vivo incubation at 37 °C in presence or absence of specific enzyme inhibitors. […]
The enzyme activity was calculated by determining the inhibitor sensitive part of product formation in incubated samples and is presented as a product formation in ng of the corresponding angiotensin product per μg protein per hour. […]
as §2

[7] = tested on: murine kidney angiotensin levels; assay: Renal angiotensin metabolites in mice treated i.p. with NEP inhibitor; type: in vivo, mouse; details: 50 mg/kg i.p.
Procedure: (§3) 10 to 12 weeks old female wild-type with C57BL/6j background were maintained at the animal care facility of the University Duesseldorf, Germany under a 12 h light/dark cycle, normal chew (SNIFF, Soest) and tap water ad libitum. Vehicle (50% DMSO) or NEP-inhibitor (LBQ657 (Sigma-Aldrich): 50 mg/kg) were administrated i.p. 4 hours prior to kidney and heparin plasma sampling. Kidneys were obtained as given above, while heparin plasma was incubated for 30 min at 37 °C for equilibrium analysis, stabilized[38] and stored at −80 °C until shipment.
as §2

[8] = tested on: murine plasma equilibrium angiotensin levels; assay: Equilibrium plasma angiotensin metabolites in mice treated i.p. with NEP inhibitor; type: in vivo, mouse; details: 50 mg/kg i.p., 4 hours, mean ± s.e.m., n = 5
Procedure: as §3, §2

[9] = tested on: Ang-(1-7) formation from Ang II (ACE2, PCP) in murine kidney homogenates; assay: Ang II turnover to Ang-(1-7) in murine kidney homogenates with and without enzyme inhibitors; type: biochemical, mouse; details: Ang II spike, 37 °C, LC-MS/MS, n = 4
Procedure: as §2

[10] = 4 hours prior to sampling, LC-MS/MS, mean ± s.e.m., n = 5
[11] = ratio of renal levels, 4 hours, mean ± s.e.m., n = 5
[12] = heparin plasma incubated 30 min at 37 °C, LC-MS/MS
[13] = ratio of equilibrium plasma levels
[14] = mouse kidney homogenate, Ang I spike, 37 °C, lisinopril 10 μM, LC-MS/MS, n = 4

With `O=C(O)CNC(=O)C(CS)Cc1ccccc1` (racemic) [DL-thiorphan] the “Effect on turnover from Ang I to Ang-(1-7)” value ([1]; human kidney biopsy homogenate, DL-thiorphan 100 μM with lisinopril 10 μM, n = 5) was “reduced significantly”, the “Effect on Ang-(1-7) formation from Ang I, MALDI-Imaging intensity” value ([2]; murine kidney cryo-sections, 772 μM Ang I, 37 °C, 5 min, 100 μM DL-thiorphan in presence of 10 μM lisinopril, n = 4, p = 0.045 vs. 10 μM lisinopril) was “significant reduction of Ang-(1-7) formation from Ang I” and the “Reduction of Ang-(1-7) formation from Ang I” value ([3]; mouse kidney homogenate, Ang I spike, 37 °C, DL-thiorphan 100 μM used only in combination with lisinopril 10 μM, LC-MS/MS) was 75.2 ± 1.8%. For the same compound, the “Effect on turnover from Ang I to Ang-(1-7)” value ([3]; mouse kidney homogenate, DL-thiorphan 100 μM with lisinopril 10 μM, n = 4) was “reduced significantly” and the ACE inhibitory activity [4] was “weak ACE inhibitory activity”.
For `CCOC(=O)[C@H](C)C[C@@H](Cc1ccc(-c2ccccc2)cc1)NC(=O)CCC(=O)O` [AHU-377], the “Activation of the prodrug” value [5] is given as “physiologically activated in the liver by CES1”.
With `CC[C@H](C)[C@H](NC(=O)[C@H](Cc1ccc(O)cc1)NC(=O)[C@@H](NC(=O)[C@H](CCCNC(=N)N)NC(=O)[C@@H](N)CC(=O)O)C(C)C)C(=O)N[C@@H](Cc1cnc[nH]1)C(=O)N1CCC[C@H]1C(=O)N[C@@H](Cc1ccccc1)C(=O)O` [Ang II, angiotensin II] the “Enzymatic contribution of ACE2, Ang II to Ang-(1-7)” value [6] was 88.2 ± 4.3%.
With `C[C@H](C[C@@H](Cc1ccc(-c2ccccc2)cc1)NC(=O)CCC(=O)O)C(=O)O` [LBQ657] the “Renal Ang I” value [7, 10] was 277 ± 31 pg/g, the “Renal Ang II” value [7, 10] was 642 ± 99 pg/g and the “Renal Ang-(1-7)” value [7, 10] was 35 ± 4 pg/g. The “Renal Ang-(1-9)” value [7, 10] was 162 ± 10 pg/g, the “Renal Ang-(2-8)” value [7, 10] was 195 ± 28 pg/g and the “Renal Ang-(2-10)” value [7, 10] was 89 ± 16 pg/g. The “Reduction of Ang-(1-7) levels in the murine kidney” value ([7]; 4 hours prior to sampling, LC-MS/MS, p = 0.026) was 53.1 ± 10.6%, the “Renal Ang-(1-7)/Ang I (x100)” value [7, 11] was 13.4 ± 2.0 and the “Renal Ang-(1-7)/Ang II (x100)” value [7, 11] was 6.1 ± 1.2. For the same compound, the “Equilibrium plasma Ang I” value [8, 12] was 970 ± 341 pg/mL, the “Equilibrium plasma Ang II” value [8, 12] was 1423 ± 540 pg/mL and the “Equilibrium plasma Ang-(1-5)” value [8, 12] was 73 ± 34 pg/mL. The “Equilibrium plasma Ang-(1-7)” value [8, 12] was 20 ± 7 pg/mL, the “Equilibrium plasma Ang-(2-8)” value [8, 12] was 269 ± 91 pg/mL and the “Equilibrium plasma Ang-(3-8)” value [8, 12] was 114 ± 36 pg/mL. The “Equilibrium plasma Ang-(1-7)/Ang I (x100)” value [8, 13] was 1.8 ± 0.2 and the “Equilibrium plasma Ang-(1-7)/Ang II (x100)” value [8, 13] was 1.5 ± 0.2.
In the case of `CC(C)C[C@H](N[C@@H](Cc1cncn1Cc1cc(Cl)cc(Cl)c1)C(=O)O)C(=O)O` [MLN-4760], the “Effect on Ang-(1-7) formation from Ang II, ACE2 KO kidney” value ([9]; ACE2 KO mouse kidney homogenate in PBS, MLN-4760 10 μM, aminopeptidase inhibitor 10 μM in all samples) is reported as “no effect” and the “Effect on Ang-(1-7) formation from Ang II, wild-type kidney” value ([9]; wild-type mouse kidney homogenate in PBS, MLN-4760 10 μM) is reported as “reduced Ang-(1-7) formation in wild-type mice to the level of ACE2 KOs”.
For `O=C[C@@H]1CCCN1C(=O)[C@@H]1CCCN1C(=O)OCc1ccccc1` [ZPP, N-benzyloxycarbonyl-prolyl-prolinal] (Cbz-Pro-Pro-aldehyde), the “Effect on Ang-(1-7) formation from Ang I, ZPP on top of lisinopril and DL-thiorphan” value ([3]; mouse kidney homogenate, Ang I spike, 37 °C, ZPP 20 μM, LC-MS/MS, n = 4) was “further significantly reduced Ang-(1-7) formation” and the “Effect on Ang-(1-7) formation from Ang II, ZPP added to MLN-4760” value ([9]; mouse kidney homogenate, ZPP 20 μM in addition to MLN-4760 10 μM) was “abolished Ang-(1-7) formation completely”.
With `CC(C)C[C@H](NC(=O)[C@@H](NC(=O)N[C@@H](Cc1ccccc1)C(=O)O)[C@@H]1CCN=C(N)N1)C(=O)N[C@H](C=O)Cc1ccccc1` [chymostatin] the “Effect on ACE independent Ang II formation from Ang I” value ([1]; human kidney biopsy homogenate, Ang I spike, 37 °C, chymostatin 10 μM, LC-MS/MS, n = 5) was “At least a part of ACE independent Ang II formation was blocked”.
In the case of `NCCCC[C@H](N[C@@H](CCc1ccccc1)C(=O)O)C(=O)N1CCC[C@H]1C(=O)O` [lisinopril], the “Effect on Ang II formation from Ang I” value ([1]; human kidney biopsy homogenate, Ang I spike, 37 °C, lisinopril 10 μM, LC-MS/MS, n = 5) is reported as “not able to completely abolish Ang II formation”, the “Ang-(1-7) signal with increasing inhibitor concentration” value ([2]; murine kidney slices incubated with Ang I, lisinopril 0 μM–10 μM, MALDI-Imaging) is reported as “concentration dependent increase of Ang-(1-7)” and the “Effect on Ang II formation from Ang I” value [3, 14] is reported as “efficiently blocked”. The “Effect on Ang-(1-7) formation from Ang I” value [3, 14] was “remained unaffected”.
With DRVYIHPFHL [Ang I, angiotensin I] the “Enzymatic contribution of ACE, Ang I to Ang II” value [1] was 25 ± 7%, the “Enzymatic contribution of NEP, Ang I to Ang-(1-7)” value [1] was 63 ± 10% and the “Enzymatic contribution of PEP, Ang I to Ang-(1-7)” value [1] was 10 ± 3%. The “Enzymatic contribution of chymase, Ang I to Ang II” value [1] was 2 ± 2%, the “Share of Ang I converted to Ang II” value [1] was 27 ± 9% and the “Share of Ang I converted to Ang-(1-7)” value [1] was 73 ± 9%. For the same compound, the “Enzymatic contribution of NEP, Ang I to Ang-(1-7)” value [3] was 50 ± 1%, the “Enzymatic contribution of PEP, Ang I to Ang-(1-7)” value [3] was 23 ± 1% and the “Share of Ang I converted directly to Ang-(1-7)” value [3] was 73.4 ± 2.1%. The “Share of Ang I metabolized to Ang II (ACE)” value [3] was 26.6 ± 2.1%.
